Source: the NIST ThermoML archive (doi:10.1016/j.fluid.2011.12.029)

Settings: Liquid, Vibrating tube method

CCCC[n+]1ccccc1.O=S(=O)([O-])C(F)(F)F [1-butylpyridinium trifluoromethanesulfonate]
mass density [kg/m3]
Settings | 303.15 K | 308.15 K | 313.15 K | 318.15 K | 323.15 K | 328.15 K | 333.15 K
100 kPa | 1311.77 | 1307.87 | 1303.91 | 1299.91 | 1296.31 | 1292.18 | 1288.27
5000 kPa | 1314.63 | 1310.78 | 1306.89 | 1303.07 | 1298.89 | 1295.18 | 1291.41
10000 kPa | 1317.44 | 1313.65 | 1309.74 | 1305.66 | 1302.15 | 1298.11 | 1294.46
15000 kPa | 1320.2 | 1316.6 | 1312.65 | 1308.66 | 1304.98 | 1301.2 | 1297.41
20000 kPa | 1322.82 | 1319.24 | 1315.17 | 1311.4 | 1307.88 | 1304.07 | 1300.4
25000 kPa | 1325.53 | 1321.85 | 1317.99 | 1314.14 | 1310.7 | 1306.75 | 1303.31
30000 kPa | 1328.06 | 1324.38 | 1320.63 | 1316.74 | 1313.34 | 1309.49 | 1306.06
35000 kPa | 1330.48 | 1326.93 | 1323.08 | 1319.52 | 1315.79 | 1312.17 | 1308.77
40000 kPa | 1332.93 | 1329.48 | 1325.67 | 1322.07 | 1318.44 | 1314.65 | 1311.33
45000 kPa | 1335.28 | 1331.89 | 1328.04 | 1324.29 | 1321.03 | 1317.18 | 1313.93
50000 kPa | 1337.67 | 1333.97 | 1330.42 | 1326.61 | 1323.34 | 1319.65 | 1316.36
55000 kPa | 1339.98 | 1336.34 | 1332.73 | 1328.88 | 1325.68 | 1322 | 1318.77
60000 kPa | 1342.03 | 1338.51 | 1334.95 | 1331.4 | 1328.01 | 1324.3 | 1320.81
65000 kPa | 1344.13 | 1340.54 | 1337.08 | 1333.55 | 1330.03 | 1326.69 | 1323.38

CCCC[n+]1cccc(C)c1.N#C[N-]C#N [1-butyl-3-methylpyridinium dicyanamide]
Settings | mass density [kg/m3]
283.15 K, 100 kPa | 1058.8
283.15 K, 5000 kPa | 1060.66
283.15 K, 10000 kPa | 1062.55
283.15 K, 15000 kPa | 1064.33
283.15 K, 20000 kPa | 1066.19
283.15 K, 25000 kPa | 1067.75
288.15 K, 100 kPa | 1055.64
288.15 K, 5000 kPa | 1057.59
288.15 K, 10000 kPa | 1059.47
288.15 K, 15000 kPa | 1061.24
288.15 K, 20000 kPa | 1063.09
288.15 K, 25000 kPa | 1064.88
288.15 K, 30000 kPa | 1066.59
288.15 K, 35000 kPa | 1068.35
288.15 K, 40000 kPa | 1070.07
288.15 K, 45000 kPa | 1071.67
288.15 K, 50000 kPa | 1073.24
293.15 K, 100 kPa | 1052.56
293.15 K, 5000 kPa | 1054.46
293.15 K, 10000 kPa | 1056.37
293.15 K, 15000 kPa | 1058.23
293.15 K, 20000 kPa | 1060.01
293.15 K, 25000 kPa | 1061.8
293.15 K, 30000 kPa | 1063.56
293.15 K, 35000 kPa | 1065.35
293.15 K, 40000 kPa | 1066.96
293.15 K, 45000 kPa | 1068.69
293.15 K, 50000 kPa | 1070.15
293.15 K, 55000 kPa | 1072.13
293.15 K, 60000 kPa | 1073.41
293.15 K, 65000 kPa | 1074.96
298.15 K, 100 kPa | 1049.45
298.15 K, 5000 kPa | 1051.35
298.15 K, 10000 kPa | 1053.24
298.15 K, 15000 kPa | 1055.19
298.15 K, 20000 kPa | 1057.08
298.15 K, 25000 kPa | 1058.87
298.15 K, 30000 kPa | 1060.59
298.15 K, 35000 kPa | 1062.37
298.15 K, 40000 kPa | 1064.1
298.15 K, 45000 kPa | 1065.73
298.15 K, 50000 kPa | 1067.37
298.15 K, 55000 kPa | 1069.04
298.15 K, 60000 kPa | 1070.61
298.15 K, 65000 kPa | 1072.1
303.15 K, 100 kPa | 1046.36
303.15 K, 5000 kPa | 1048.3
303.15 K, 10000 kPa | 1050.18
303.15 K, 15000 kPa | 1052.05
303.15 K, 20000 kPa | 1053.94
303.15 K, 25000 kPa | 1055.82
303.15 K, 30000 kPa | 1057.57
303.15 K, 35000 kPa | 1059.35
303.15 K, 40000 kPa | 1061.07
303.15 K, 45000 kPa | 1062.75
303.15 K, 50000 kPa | 1064.4
303.15 K, 55000 kPa | 1066.19
303.15 K, 60000 kPa | 1067.59
303.15 K, 65000 kPa | 1069.21
308.15 K, 100 kPa | 1043.21
308.15 K, 5000 kPa | 1045.23
308.15 K, 10000 kPa | 1047.28
308.15 K, 15000 kPa | 1049.14
308.15 K, 20000 kPa | 1051.02
308.15 K, 25000 kPa | 1052.92
308.15 K, 30000 kPa | 1054.8
308.15 K, 35000 kPa | 1056.51
308.15 K, 40000 kPa | 1058.23
308.15 K, 45000 kPa | 1059.9
308.15 K, 50000 kPa | 1061.71
308.15 K, 55000 kPa | 1063.27
308.15 K, 60000 kPa | 1064.76
308.15 K, 65000 kPa | 1066.44
313.15 K, 100 kPa | 1040.26
313.15 K, 5000 kPa | 1042.22
313.15 K, 10000 kPa | 1044.29
313.15 K, 15000 kPa | 1046.25
313.15 K, 20000 kPa | 1048.15
313.15 K, 25000 kPa | 1050.05
313.15 K, 30000 kPa | 1051.8
313.15 K, 35000 kPa | 1053.63
313.15 K, 40000 kPa | 1055.42
313.15 K, 45000 kPa | 1057.11
313.15 K, 50000 kPa | 1058.82
313.15 K, 55000 kPa | 1060.43
313.15 K, 60000 kPa | 1062.05
313.15 K, 65000 kPa | 1063.59
318.15 K, 100 kPa | 1037.22
318.15 K, 5000 kPa | 1039.29
318.15 K, 10000 kPa | 1041.17
318.15 K, 15000 kPa | 1043.3
318.15 K, 20000 kPa | 1045.08
318.15 K, 25000 kPa | 1046.98
318.15 K, 30000 kPa | 1048.91
318.15 K, 35000 kPa | 1050.75
318.15 K, 40000 kPa | 1052.38
318.15 K, 45000 kPa | 1054.09
318.15 K, 50000 kPa | 1055.97
318.15 K, 55000 kPa | 1057.54
318.15 K, 60000 kPa | 1059.3
318.15 K, 65000 kPa | 1060.96
323.15 K, 100 kPa | 1034.21
323.15 K, 5000 kPa | 1036.41
323.15 K, 10000 kPa | 1038.36
323.15 K, 15000 kPa | 1040.45
323.15 K, 20000 kPa | 1042.21
323.15 K, 25000 kPa | 1044.3
323.15 K, 30000 kPa | 1046.05
323.15 K, 35000 kPa | 1047.94
323.15 K, 40000 kPa | 1049.73
323.15 K, 45000 kPa | 1051.45
323.15 K, 50000 kPa | 1053.22
323.15 K, 55000 kPa | 1054.85
323.15 K, 60000 kPa | 1056.49
323.15 K, 65000 kPa | 1058.03
328.15 K, 100 kPa | 1031.21
328.15 K, 5000 kPa | 1033.17
328.15 K, 10000 kPa | 1035.31
328.15 K, 15000 kPa | 1037.3
328.15 K, 20000 kPa | 1039.35
328.15 K, 25000 kPa | 1041.31
328.15 K, 30000 kPa | 1042.96
328.15 K, 35000 kPa | 1044.93
328.15 K, 40000 kPa | 1046.72
328.15 K, 45000 kPa | 1048.66
328.15 K, 50000 kPa | 1050.54
328.15 K, 55000 kPa | 1052.18
328.15 K, 60000 kPa | 1053.85
328.15 K, 65000 kPa | 1055.47
333.15 K, 100 kPa | 1027.63
333.15 K, 5000 kPa | 1030.21
333.15 K, 10000 kPa | 1032.34
333.15 K, 15000 kPa | 1034.45
333.15 K, 20000 kPa | 1036.45
333.15 K, 25000 kPa | 1038.36
333.15 K, 30000 kPa | 1040.39
333.15 K, 35000 kPa | 1042.19
333.15 K, 40000 kPa | 1044.05
333.15 K, 45000 kPa | 1045.58
333.15 K, 50000 kPa | 1047.67
333.15 K, 55000 kPa | 1049.26
333.15 K, 60000 kPa | 1051.06
333.15 K, 65000 kPa | 1052.61
